Measured values from PMC5608758, “A brain-targeting lipidated peptide for neutralizing RNA-mediated toxicity in Polyglutamine Diseases” (Scientific Reports, 2017).
Several values for one entry are separate records, joined by “and”; a condition that tells them apart may be missing. Equal values may be shown once. Read-outs that look alike come from different tables or passages of the source. Residues, ends and D or L forms follow the SMILES beside them. *: point of attachment. Palmitoyl = CCCCCCCCCCCCCCCC(=O)*

Tests used:
[1] = test system: EGFP CAG78 RNA-expressing HEK293 cells; format: cell-based; conditions: for suppression of expanded CAG RNA-induced cell death: LDH assay
Procedure: HEK293 cells were cultured at 37 °C with 5% CO2 in DMEM supplemented with 10% FBS and 1% penicillin-streptomycin. Primary rat cortical neurons were isolated and cultured as previously described. Transient transfection of HEK293 cells was performed using Lipofectamine 2000 (Life Technologies). P3V8 were delivered to HEK293 cells using the DeliverX (DX) Peptide Transfection Kit (Affymetrix) 4 hr after DNA transfection. At least two batches of independently synthesized peptides were used in the experiments.
HEK 293 cells were seeded on a 24-well plate at a density of 0.5 × 10^5, and pEGFP CAG78 DNA construct was used to transfect the cells. […] […] Seventy-two hours after treatment, LDH enzyme activity in the cell culture medium was measured as described before. Experimental groups were normalized to the untransfected control. After normalization, data were analyzed using the dose response-inhibition curve (nonlinear regression-variable slope) to determine the IC50 value (Prism6 software, GraphPad Software, Inc.). Each experiment was repeated at least 3 times.

[2] = test system: HEK293 cells; assay: Cellular uptake studies in HEK293 cells; format: in vitro ADME; conditions: 3 hr, 37 °C, cell lysate, LC/MS, normalized to total protein; for cellular uptake level: 100 nM peptide
Procedure: HEK293 cells were seeded on a 6-well plate at a density of 6 × 10^5 and cultured overnight at 37 °C with 5% CO2 in DMEM supplemented with 10% FBS and 1% penicillin-streptomycin. Cells were then treated with 100, 500 or 1000 nM of respective peptide at 37 °C for 3 hr. After treatment, the cells were washed with ice-cold PBS and then lysed by 2% SDS solution. Aliquot (100 µl) of the cell lysate was added with 200 µl acetonitrile and centrifuged at 13000 rcf for 10 min to precipitate the proteins. The collected supernatant was subjected to LC/MS analysis. The protein concentration of the cell lysate was measured using a bicinchoninic acid protein assay kit following Sigma’s protocol.

[3] = In vitro stability in rat plasma; format: in vitro ADME; conditions: for remaining at 3 h, 2000 ng/mL: rat; for remaining at 1 h, 500 ng/mL / remaining at 3 h, 1000 ng/mL: LLOQ 12.5 ng/mL P3V8
Procedure: (§1) Sprague-Dawley (SD) rats (male, 180-200 g) were supplied by the Laboratory Animal Services Centre at The Chinese University of Hong Kong. All animal studies were conducted under the approval of the Animal Ethics Committee of The Chinese University of Hong Kong, and were performed in accordance with relevant guidelines and regulations. Blank rat brain homogenate was prepared by ultrasonic probe homogenization (Micoson XL-2000, Misonix, […], USA) of brains collected from the control rats. Blank rat plasma was prepared by centrifugation (8000 rcf for 3.5 min) of blood collected from control rats. […] The mixtures were incubated at 37 °C with 100 rpm in a water bath for 1 or 3 hr. […] The supernatant was collected for LC/MS/MS analysis.

[4] = In vitro stability in rat brain homogenate; format: in vitro ADME; conditions: for remaining at 1 h, 1000 ng/mL / remaining at 1 h, 2000 ng/mL: incubation 1 hr; for remaining at 1 h, 2000 ng/mL: 100 rpm
Procedure: as §1

[5] = Plasma pharmacokinetic study in SD rat
Procedure: SD rats (180–200 g) were anesthetized with an intraperitoneal injection of ketamine (60 mg/kg) and xylazine (6 mg/kg) and received a minor surgery of cannulation with a polythene tube (0.4 mm i.d., 0.8 mm o.d., Harvard Apparatus, Holliston, MA, USA) in the left jugular vein. The rats received an overnight recovery with free access to food and water. […] For the pharmacokinetic study, after the drug administration, blood samples were collected from the catheter at appropriate time intervals (2, 5, 10, 15, 20, 30, 45, 60, and 90 min). After each collection, 0.2 mL of saline containing 25 IU heparin was injected to compensate for the blood loss. Plasma was collected after centrifugation at 8000 rcf for 3.5 min and stored at −80°C until analysis. For brain uptake study, at 20 min, the rat was anesthetized and perfused by 500 mL saline, and the whole brain was collected. The brain was wiped by tissue paper to remove excess water, meninges and blood vessels followed by storage at −80 °C until analysis.
Aliquot of plasma sample (80 μL) was mixed with 160 μL acetonitrile. The mixture was vortexed for 1 min and followed by centrifugation at 13000 rcf for 10 min. The supernatant was collect and subjected to LC/MS/MS analysis.
Agilent 6430 Triple Quadrupole LC/MS/MS system (Agilent Technologies, CA, USA) was employed for the analysis. For analysis of P3V8, chromatographic separation was achieved on a SunFire C8 Column (250 mm × 4.6 mm, 5 µm). The mobile phase of water containing 0.2% formic acid (A) and acetonitrile (B) was used with a gradient elution (0–5 min, 20–70% B). The flow rate was 0.8 mL/min. Multiple reactions monitoring (MRM) with fragmentation transition of 500 to 129 in positive ion mode was employed for quantization of P3V8. […] Mobile phase of water (A) and acetonitrile (B) was used. The gradient elution for plasma samples was 0–4 min, 30–95% B, and for brain samples was 0–9 min, 10–95% B. The flow rate was 0.8 mL/min.
Plasma concentration verse time profiles were analyzed by WinNonlin (Pharsight Corporation, Mountain View, CA, USA, Version 2.1) to obtain the pharmacokinetics parameters. Other data were analyzed by one-way ANOVA followed by post hoc Tukey test or unpaired t-test. “*”, “**”, “***” and “****” represent P < 0.05, P < 0.01, P < 0.001 and P < 0.0001 respectively, which are considered statistically significant.

[6] = male, Sprague-Dawley, rat plasma, 500 ng/mL, 37 °C, incubation 1 hr, LC/MS/MS, mean ± S.E.M. of 5, read-out: Percentage of remained
[7] = male, Sprague-Dawley, rat plasma, 1000 ng/mL, 37 °C, incubation 3 hr, LC/MS/MS, mean ± S.E.M. of 5, read-out: Percentage of remained
[8] = rat plasma, 2000 ng/mL, 37 °C, 100 rpm, incubation 1 hr, LC/MS/MS, mean ± S.E.M. of 5 independent experiments
[9] = male, Sprague-Dawley, rat, tissue homogenate, read-out: Percentage of remained
[10] = SD rats, intranasal, 3 μmol/kg, pre-treated with 0.5% chitosan, mean ± S.E.M. of 6
[11] = SD rats, intranasal, 3 μmol/kg, pre-treated with 0.5% chitosan, plasma, mean ± S.E.M. of 6
[12] = Sprague-Dawley, rat, in vivo, iv, 3 μmol/kg
[13] = Sprague-Dawley, rat, plasma, iv, 3 μmol/kg

CCCCCCCCCCCCCCCC(=O)N[C@@H](CC(=O)O)C(=O)NCC(=O)N[C@@H](CCCCN)C(=O)N[C@@H](CO)C(=O)N[C@@H](CCCCN)C(=O)NCC(=O)N[C@H](C(=O)N[C@@H](C)C(=O)N[C@@H](Cc1ccc(O)cc1)C(=O)N[C@H](C(=O)N[C@@H](CCC(=O)O)C(=O)N[C@@H](Cc1ccccc1)C(=O)N[C@@H](CCCCN)C(N)=O)[C@@H](C)CC)[C@@H](C)CC [L1P3V8] (Palmitoyl-DGKSKGIAYIEFK-NH2)
IC50 ([1]; read-out: IC50, inhibition of cell death (LDH enzyme activity reduced by 50%), peptide added without DeliverX immediately after plasmid transfection, LDH 72 hr after treatment, mean ± S.E.M., at least 3 experiments): ~100 nM
cellular uptake level [2]: low cellular concentration
cellular uptake level compared to P3V8 ([2]; 500 nM and 1 µM peptide): higher cellular concentration
remaining at 3 h, 2000 ng/mL ([3]; male, Sprague-Dawley, plasma, read-out: Percentage of remained): 86.9 ± 5.5%
remaining at 1 h, 500 ng/mL [3, 6]: 88.1 ± 4.9%
remaining at 3 h, 500 ng/mL ([3]; male, Sprague-Dawley, rat plasma, 500 ng/mL, 37 °C, incubation 3 hr, LC/MS/MS, mean ± S.E.M. of 5, read-out: Percentage of remained): 73.8 ± 5.7%
remaining at 3 h, 1000 ng/mL [3, 7]: 81.2 ± 1.5%
remaining at 1 h, 2000 ng/mL ([3]; male, Sprague-Dawley, rat plasma, 2000 ng/mL, 37 °C, 100 rpm, incubation 1 hr, LC/MS/MS, mean ± S.E.M. of 5 independent experiments, read-out: Percentage of remained): 98.8 ± 5%
Percentage of remained ([3]; rat plasma, 1000 ng/mL, 37 °C, incubation 1 hr, LC/MS/MS, mean ± S.E.M. of 5): 98.7 ± 3.9 %
Percentage of remained [3, 8]: nearly all L1P3V8 remained intact
remaining at 1 h, 500 ng/mL [4, 9]: < 20%
remaining at 3 h, 500 ng/mL [4, 9]: < 20%
remaining at 1 h, 1000 ng/mL ([4]; male, Sprague-Dawley, tissue homogenate, rat brain homogenate, 37 °C, LC/MS/MS, mean ± S.E.M. of 5, read-out: Percentage of remained): 22.8 ± 1.2%
remaining at 3 h, 1000 ng/mL ([4]; male, Sprague-Dawley, tissue homogenate, rat brain homogenate, 37 °C, incubation 3 hr, LC/MS/MS, mean ± S.E.M. of 5, LLOQ 12.5 ng/mL P3V8, read-out: Percentage of remained): 15.8 ± 0.7%
remaining at 1 h, 2000 ng/mL ([4]; male, Sprague-Dawley, tissue homogenate, rat brain homogenate, 2000 ng/mL, 37 °C, LC/MS/MS, mean ± S.E.M. of 5, read-out: Percentage of remained): 45 ± 3.5%
remaining at 3 h, 2000 ng/mL ([4]; male, Sprague-Dawley, tissue homogenate, rat brain homogenate, 2000 ng/mL, 37 °C, incubation 3 hr, LC/MS/MS, mean ± S.E.M. of 5, LLOQ 12.5 ng/mL P3V8, read-out: Percentage of remained): 21.2 ± 3%
AUC0-last [5, 10]: 2277 ± 558^*** min * nmol/L
T1/2 [5, 10]: 37 ± 5 min
Tmax [5, 10]: 18 ± 1 min
Cmax [5, 11]: 74 ± 13^*** nmol/L
level at time molar at 1.5 h ([5]; Sprague-Dawley, rat, in vivo, iv, 3 umol/kg): 190 nM
AUC(0-t) [5, 12]: 2.99 µM·h
Cmax [5, 12]: 10400 ± 1220 nM
Tmax [5, 12]: 2 min
half-life [5, 12]: 17 ± 4 min

Ac-DGKSKGIAYIEFK-NH2 [P3V8]
suppression of expanded CAG RNA-induced cell death ([1]; peptide alone, without DeliverX): did not exert any cellular effect
suppression of expanded CAG RNA-induced cell death ([1]; peptide transfected with DeliverX 4 hr after plasmid transfection): could effectively alleviate the cytotoxicity
cellular uptake level [2]: no uptake
remaining at 3 h, 2000 ng/mL ([3]; male, Sprague-Dawley, rat plasma, read-out: Percentage of remained): < 0.6%
remaining at 1 h, 500 ng/mL [3, 6]: < 2.5%
remaining at 1 h, 1000 ng/mL ([3]; male, Sprague-Dawley, rat plasma, 1000 ng/mL, 37 °C, incubation 1 hr, LC/MS/MS, mean ± S.E.M. of 5, read-out: Percentage of remained): 8.6 ± 0.5%
remaining at 3 h, 1000 ng/mL [3, 7]: < 1.3%
Percentage of remained [3, 8]: 20.7 ± 3.3%
Percentage of remained ([3]; rat plasma, 2000 ng/mL, 37 °C, 100 rpm, incubation 3 hr, LC/MS/MS, mean ± S.E.M. of 5, LLOQ 12.5 ng/mL P3V8, 100 ng/mL L1P3V8): almost completely degraded
remaining at 1 h, 500 ng/mL ([4]; male, Sprague-Dawley, rat, rat brain homogenate, read-out: Percentage of remained): < 2.5%
remaining at 1 h, 1000 ng/mL ([4]; male, Sprague-Dawley, rat brain homogenate, 37 °C, LC/MS/MS, mean ± S.E.M. of 5, read-out: Percentage of remained): 4 ± 1.6%
remaining at 3 h, 1000 ng/mL ([4]; male, Sprague-Dawley, rat brain homogenate, 37 °C, incubation 3 hr, LC/MS/MS, mean ± S.E.M. of 5, LLOQ 12.5 ng/mL P3V8, read-out: Percentage of remained): < 1.3%
remaining at 1 h, 2000 ng/mL ([4]; male, Sprague-Dawley, rat brain homogenate, 2000 ng/mL, 37 °C, LC/MS/MS, mean ± S.E.M. of 5, read-out: Percentage of remained): 3.3 ± 0.6%
remaining at 3 h, 2000 ng/mL ([4]; male, Sprague-Dawley, rat brain homogenate, 2000 ng/mL, 37 °C, incubation 3 hr, LC/MS/MS, mean ± S.E.M. of 5, LLOQ 12.5 ng/mL P3V8, read-out: Percentage of remained): < 0.6%
Percentage of remained ([4]; rat brain homogenate, 2000 ng/mL, 37 °C, incubation 3 hr, LC/MS/MS, mean ± S.E.M. of 5, LLOQ 12.5 ng/mL P3V8): almost completely degraded
AUC0-last [5, 10]: 85 ± 32 nmol·min/L
Tmax [5, 10]: 15 min and 15 ± 4 min
Cmax [5, 11]: 12 ± 2 nM
Tmax ([5]; Sprague-Dawley, rat, plasma, iv, 3 umol/kg): 2 min
AUC(0-t) [5, 13]: 0.0202 µM·h
Cmax [5, 13]: 452 ± 22 nM
